Source: patent US7202216B2 (The Board of Trustees of the Leland Stanford Junior …, priority 2002, dated 2007)
Where no end group is shown, it is not given here.

Tests used:
[1] = BBM fractions prepared from rat small intestinal mucosa
[2] = Amount of peptides digested after 15 hours (Table 1, samples H1P0-H5P0); assay type: in vitro ADME
[3] = test system: gastric and pancreatic proteases (pepsin, trypsin, chymotrypsin, elastase, carboxypeptidase)
[4] = test system: small intestinal brush-border membrane (BBM) enzymes; assay: Brush-border membrane (BBM) digestion of gliadin peptides; settings: 12 ng/μl BBM protein, rat small intestinal mucosa
[5] = biological target: T1, tissue transglutaminase (tTGase) (Homo sapiens, UniProt P21980); settings: vs natural substrate fibrinogen; cited from earlier work
T1 sequence (P21980 1-687): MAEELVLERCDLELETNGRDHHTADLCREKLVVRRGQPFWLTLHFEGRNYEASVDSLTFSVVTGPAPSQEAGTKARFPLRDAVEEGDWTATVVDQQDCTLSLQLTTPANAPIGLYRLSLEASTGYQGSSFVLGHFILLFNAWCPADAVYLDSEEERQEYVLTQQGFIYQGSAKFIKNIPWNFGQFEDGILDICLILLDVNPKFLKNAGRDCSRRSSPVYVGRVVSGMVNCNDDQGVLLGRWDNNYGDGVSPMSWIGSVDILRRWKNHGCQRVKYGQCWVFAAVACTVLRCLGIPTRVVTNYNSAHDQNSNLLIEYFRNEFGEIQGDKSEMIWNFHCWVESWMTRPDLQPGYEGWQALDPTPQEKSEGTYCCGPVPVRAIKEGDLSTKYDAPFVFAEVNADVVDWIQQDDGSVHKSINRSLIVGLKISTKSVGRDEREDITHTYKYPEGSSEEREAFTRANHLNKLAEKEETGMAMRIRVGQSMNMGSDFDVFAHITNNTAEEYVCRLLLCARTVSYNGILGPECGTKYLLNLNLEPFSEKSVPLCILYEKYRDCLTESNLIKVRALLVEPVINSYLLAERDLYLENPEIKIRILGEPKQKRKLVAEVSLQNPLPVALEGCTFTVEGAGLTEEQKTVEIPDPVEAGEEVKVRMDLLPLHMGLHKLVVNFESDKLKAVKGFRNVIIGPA

Row | Amount of Peptides Digested after 15 hours ([2]; sample H1P0) [%] | Amount of Peptides Digested after 15 hours ([2]; sample H2P0) [%] | Amount of Peptides Digested after 15 hours ([2]; sample H3P0) [%] | Amount of Peptides Digested after 15 hours ([2]; sample H4P0) [%] | Amount of Peptides Digested after 15 hours ([2]; sample H5P0) [%] | Sequence | not cleaved [1] | stability on prolonged exposure to proteases [3] | half-life of digestion [4] [h] | specificity of tTGase relative to its target peptide sequence in fibrinogen [5] [fold]
1 | – | – | – | – | – | LQLQPFPQPQLPYPQPQLPYPQPQLPYPQPQPF | half-life of digestion >20 h; remains intact | – | – | –
2 | – | – | – | – | – | PQPQLPYPQPQLPY (listed as Triticum aestivum) [α-gliadin derived tTGase substrate peptide] | – | – | – | 5
3 | >90 | >61 | >87 | >96 | >96 | QLQPFPQPQLPY [Control A] | – | – | – | –
4 | >90 | >85 | >95 | >95 | >95 | WQIPEQSR [Control B] | – | – | – | –

Row | Sequence | Amount of Peptides Digested after 15 hours ([2]; sample H1P0) [%] | Amount of Peptides Digested after 15 hours ([2]; sample H2P0) [%] | Amount of Peptides Digested after 15 hours ([2]; sample H3P0) [%] | Amount of Peptides Digested after 15 hours ([2]; sample H4P0) [%] | Amount of Peptides Digested after 15 hours ([2]; sample H5P0) [%] | not cleaved [1] | stability on prolonged exposure to proteases [3] | half-life of digestion [4] [h] | specificity of tTGase relative to its target peptide sequence in fibrinogen [5] [fold]
5 | LQLQPFPQPQLPYPQPQLPYPQPQLPYPQPQPF [33-mer] | <20 | <20 | <20 | <20 | <20 | – | remained intact | > 20 | –
